Tests used:
[1] = biological target: Recombinant human Cbl-b (aa 36-427) (Homo sapiens (Human), UniProt Q13191); experiment: Cbl-b Biochemical Assay (TR-FRET); conditions: read-out: TR-FRET hCbl-b IC50
Method in brief: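 Two-step TR-FRET: 6 nM biotinylated Cbl-b preincubated 30-60 min with compound, then 60 min at RT with 1-2.5 nM Src-Zap70 and 0.5 mM ATP in HEPES pH 7.0 buffer, 1% DMSO. Stopped with 5 mM EDTA plus 100 nM UBE2D2-Ub-FL-BODIPY and 1 nM streptavidin-Tb, 60 min; 520 nm signal; IC50 from 4-parameter fit.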

[2] = biological target: Recombinant human c-Cbl (aa 47-435) (Homo sapiens (Human), UniProt P22681); experiment: c-Cbl Biochemical Assay (TR-FRET)
Recombinant human c-Cbl (aa 47-435), sequence (P22681 47-435): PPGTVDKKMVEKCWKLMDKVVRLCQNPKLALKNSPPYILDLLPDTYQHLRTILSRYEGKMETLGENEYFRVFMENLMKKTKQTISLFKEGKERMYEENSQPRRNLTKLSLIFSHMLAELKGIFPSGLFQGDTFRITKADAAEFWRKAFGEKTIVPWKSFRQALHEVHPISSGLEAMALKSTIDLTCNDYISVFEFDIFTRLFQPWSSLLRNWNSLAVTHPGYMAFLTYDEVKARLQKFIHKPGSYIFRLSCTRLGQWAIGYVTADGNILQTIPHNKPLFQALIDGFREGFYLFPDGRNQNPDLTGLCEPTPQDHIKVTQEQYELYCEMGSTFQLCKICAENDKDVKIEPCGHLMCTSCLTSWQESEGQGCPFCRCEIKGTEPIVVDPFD
Procedure: Recombinant human c-Cbl (aa 47-435) was expressed in E. coli, purified and biotinylated in vitro. The protein was diluted to 12 nM in freshly prepared assay buffer consisting of 50 mM HEPES, pH 7.0, 100 mM NaCl, 5 mM MgCl2, 0.01% Triton-X 100, 0.01% BSA and 1 mM DTT. Recombinant human Src (aa 254-536)-[…]-Zap-70 (aa 281-297) fusion protein was expressed in E. coli and purified. Protein was diluted in assay buffer to 5-20 nM and ATP was added to 1 mM. Recombinant human UBE2D2([…]) was expressed in E. coli, purified and ubiquitinated and Bodipy labelled in vitro. Protein was diluted to 200 nM in assay buffer without MgCl2 (or Cisbio PPI buffer). Streptavidin-Terbium was added to 2 nM and EDTA to 10 mM, to provide a binding assay mix. Compounds were dissolved in DMSO and diluted to prepare a ten-point half log dilution series. 100 nl of each compound concentration was dispensed in duplicate in a 384 well black assay plate using acoustic dispensing. Wells for maximum signal controls received 100 nl of DMSO only and wells for minimum controls received 100 nl of a reference inhibitor compound at a final assay concentration of […] to produce 100% inhibition. 5 μl of diluted c-cbl enzyme was added to all wells of the assay plate and incubated at RT for 30 min. The enzyme assay was initiated by addition of 5 μl of Src-Zap/ATP mix to all wells, and the plate incubated at RT for 60-90 min. The enzyme reaction was terminated and the binding reaction was initiated by adding 10 μl of binding assay mix to all wells and incubating the plate at RT for 60 min prior to assay read. Final assay conditions consisted of 6 nM c-cbl, 2.5-10 nM Src-Zap70, 0.5 mM ATP, 1% (v/v) DMSO (enzyme reaction) and 100 nM UBE2D2([…])-Ub-FL-BODIPY, 5 mM EDTA, 1 nM Streptavidin-Tb (binding reaction). The HTRF assay signal was measured at 520 nm on an Envision plate reader, with reference signal at 485 or 620 nm. Data was normalized using maximum and minimum assay controls: % Inhibition=100-(100*((maximum control)-unknown)/(maximum control-minimum control)). A 4-parameter dose-response equation was used to fit the normalized dose-response data and derive an IC50 for test compounds.

Recombinant human Cbl-b (aa 36-427), sequence (Q13191 36-427): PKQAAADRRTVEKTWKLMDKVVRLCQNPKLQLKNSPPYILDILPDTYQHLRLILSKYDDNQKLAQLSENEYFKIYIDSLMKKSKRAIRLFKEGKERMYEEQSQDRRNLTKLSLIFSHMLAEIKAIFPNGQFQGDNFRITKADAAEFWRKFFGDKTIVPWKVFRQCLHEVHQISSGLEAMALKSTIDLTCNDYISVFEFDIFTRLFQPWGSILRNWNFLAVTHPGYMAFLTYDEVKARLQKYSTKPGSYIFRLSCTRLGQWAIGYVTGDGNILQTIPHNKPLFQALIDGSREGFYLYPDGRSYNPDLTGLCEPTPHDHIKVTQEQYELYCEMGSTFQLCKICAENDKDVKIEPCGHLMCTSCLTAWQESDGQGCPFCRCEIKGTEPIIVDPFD

`Cn1cnnc1-c1cc(C#N)ccc1-c1cc(C2CC2)nc(N2Cc3c(F)cc(CN[C@]4(C)COC[C@@H]4O)cc3C2=O)c1` (relative stereo) [AOH-1, rel-4-{2-Cyclopropyl-6-[4-fluoro-6-({[(3R,4R)-4-hydroxy-3-methyloxolan-3-yl]amino}methyl)-1-oxo-3H-isoindol-2-yl]pyridin-4-yl}-3-(4-methyl-1,2,4-triazol-3-yl)benzonitrile] was tested, and the IC50 [1] was ≤ 200 nM and the IC50 [2] was ≤ 200 nM.
For `Cn1cnnc1-c1cc(C#N)ccc1-c1cc(C2CC2)nc(N2Cc3c(F)cc(CN4CC[C@@H]5OCC[C@@H]54)cc3C2=O)c1` (single isomer, unassigned) [ANG-1], the IC50 [1] was ≤ 200 nM and the IC50 [2] was ≤ 200 nM.
In the case of `Cn1cnnc1-c1cc(C#N)ccc1-c1cc(C2CC2)nc(N2Cc3c(F)cc(CN4CC[C@H]5OCC[C@H]54)cc3C2=O)c1` (single isomer, unassigned) [ANH-1], the IC50 [1] is reported as ≤ 200 nM and the IC50 [2] is reported as ≤ 200 nM.
In the case of `Cn1cnnc1-c1cc(C#N)ccc1-c1cc(C2CC2)nc(N2Cc3c(F)cc(CN4CC[C@H]5OCC[C@H]54)cc3C2=O)c1` (stereo in doubt) [ANF-11, 4-[2-Cyclopropyl-6-(4-fluoro-6-{hexahydrofuro[3,2-b]pyrrol-4-ylmethyl}-1-oxo-3H-isoindol-2-yl)pyridin-4-yl]-3-(4-methyl-1,2,4-triazol-3-yl)benzonitrile], the IC50 [1] is reported as ≤ 200 nM and the IC50 [2] is reported as ≤ 200 nM.
For `Cn1cnnc1-c1cc(C#N)ccc1-c1cc(C2CC2)nc(N2Cc3ccc(CNC4CCOC4)cc3C2=O)c1` (stereo in doubt) [ANP-2, 4-[2-Cyclopropyl-6-(1-oxo-6-{[(3S)-oxolan-3-ylamino]methyl}-3H-isoindol-2-yl)pyridin-4-yl]-3-(4-methyl-1,2,4-triazol-3-yl)benzonitrile], the IC50 [1] was ≤ 200 nM and the IC50 [2] was ≤ 200 nM.
For `Cn1cnnc1-c1cc(C#N)ccc1-c1cc(C2CC2)nc(N2Cc3c(F)cc(CN[C@]4(C)COC[C@@H]4O)cc3C2=O)c1` (stereo in doubt) [AOF-9, 4-[2-Cyclopropyl-6-(4-fluoro-6-{[(4-hydroxy-3-methyloxolan-3-yl)amino]methyl}-1-oxo-3H-isoindol-2-yl)pyridin-4-yl]-3-(4-methyl-1,2,4-triazol-3-yl)benzonitrile], the IC50 [1] was < 200 nM and the IC50 [2] was < 200 nM.
With `Cn1cnnc1-c1cc(C#N)ccc1-c1cc(C2CC2)nc(N2Cc3c(F)cc(CN[C@@]4(C)COC[C@H]4O)cc3C2=O)c1` (stereo in doubt) [AOG-1, 4-[2-Cyclopropyl-6-(4-fluoro-6-{[(4-hydroxy-3-methyloxolan-3-yl)amino]methyl}-1-oxo-3H-isoindol-2-yl)pyridin-4-yl]-3-(4-methyl-1,2,4-triazol-3-yl)benzonitrile] the IC50 [1] was ≤ 200 nM and the IC50 [2] was ≤ 200 nM.
`Cn1cnnc1-c1cc(C#N)ccc1-c1cc(C2CC2)nc(N2Cc3ccc([C@H]4COC[C@@H](C5CCC5)N4)cc3C2=O)c1` (stereo in doubt) [AOP-4, rac-4-(2-{6-[(3R,5S)-5-Cyclobutylmorpholin-3-yl]-1-oxo-3H-isoindol-2-yl}-6-cyclopropylpyridin-4-yl)-3-(4-methyl-1,2,4-triazol-3-yl)benzonitrile] was tested, and the IC50 [1] was ≤ 200 nM and the IC50 [2] was ≤ 200 nM.
`Cn1cnnc1-c1cc(C#N)ccc1-c1cc(C2CC2)nc(N2Cc3ccc([C@@H]4COC[C@H](C5CCC5)N4)cc3C2=O)c1` (stereo in doubt) [AOQ-1, rel-4-(2-{6-[(3R,5S)-5-Cyclobutylmorpholin-3-yl]-1-oxo-3H-isoindol-2-yl}-6-cyclopropylpyridin-4-yl)-3-(4-methyl-1,2,4-triazol-3-yl)benzonitrile] was tested, and the IC50 [1] was ≤ 200 nM and the IC50 [2] was ≤ 200 nM.
With `Cn1cnnc1-c1cc(C#N)ccc1-c1cc(C2CC2)nc(N2Cc3ccc([C@H]4COC[C@@H](C5CCC5)N4)cc3C2=O)c1` (stereo in doubt) [AOR-1, rel-4-(2-{6-[(3R,5S)-5-Cyclobutylmorpholin-3-yl]-1-oxo-3H-isoindol-2-yl}-6-cyclopropylpyridin-4-yl)-3-(4-methyl-1,2,4-triazol-3-yl)benzonitrile] the IC50 [1] was ≤ 200 nM and the IC50 [2] was ≤ 200 nM.
With `Cn1cnnc1-c1cc(C#N)ccc1-c1cc(C2CC2)nc(N2Cc3c(F)cc(CN4CC[C@H]5COC[C@@H]54)cc3C2=O)c1` (stereo in doubt) [AOT-2, 4-(2-Cyclopropyl-6-(4-fluoro-6-((hexahydro-1H-furo[3,4-b]pyrrol-1-yl)methyl)-1-oxoisoindolin-2-yl)pyridin-4-yl)-3-(4-methyl-4H-1,2,4-triazol-3-yl)benzonitrile] the IC50 [1] was ≤ 200 nM and the IC50 [2] was ≤ 200 nM.
`CCNc1cnc(N2Cc3c(cc(CO)cc3C(F)(F)F)C2=O)cc1-c1ccc(F)cc1-c1nncn1C` [AHN-9, 2-(5-(Ethylamino)-4-(4-fluoro-2-(4-methyl-4H-1,2,4-triazol-3-yl)phenyl)pyridin-2-yl)-6-(hydroxymethyl)-4-(trifluoromethyl)isoindolin-1-one] gave an IC50 [1] of 10000 to 50000 nM and an IC50 [2] of 10000 to 50000 nM.
`CN1CCC[C@@H]1COCc1cc2c(c(C(F)(F)F)c1)CN(c1cc(-c3ccc(F)cc3-c3nncn3C)cc(C3CC3)n1)C2=O` [AHO-4, 2-{6-Cyclopropyl-4-[4-fluoro-2-(4-methyl-1,2,4-triazol-3-yl)phenyl]pyridin-2-yl}-6-({[(2R)-1-methylpyrrolidin-2-yl]methoxy}methyl)-4-(trifluoromethyl)-3H-isoindol-1-one] was tested, and the IC50 [1] was ≤ 200 nM and the IC50 [2] was ≤ 200 nM.
With `Cn1cnnc1-c1cc(C#N)ccc1-c1cc(C2CC2)nc(N2Cc3c(cc(COCC4(O)CCC4)cc3C(F)(F)F)C2=O)c1` [AHP-1, 4-(2-Cyclopropyl-6-(6-(((1-hydroxycyclobutyl)methoxy)methyl)-1-oxo-4-(trifluoromethyl)isoindolin-2-yl)pyridin-4-yl)-3-(4-methyl-4H-1,2,4-triazol-3-yl)benzonitrile] the IC50 [1] was ≤ 200 nM and the IC50 [2] was ≤ 200 nM.
With `CCOc1cc(-c2ccc(F)cc2-c2nncn2C)cc(N2Cc3c(cc(COCCO)cc3C(F)(F)F)C2=O)n1` [AHQ-4, 2-(6-Ethoxy-4-(4-fluoro-2-(4-methyl-4H-1,2,4-triazol-3-yl)phenyl)pyridin-2-yl)-6-((2-hydroxyethoxy)methyl)-4-(trifluoromethyl)isoindolin-1-one] the IC50 [1] was ≤ 200 nM and the IC50 [2] was ≤ 200 nM.
For `CN1CCC[C@H]1COCc1cc2c(c(C(F)(F)F)c1)CN(c1cc(-c3ccc(F)cc3-c3nncn3C)cc(C3CC3)n1)C2=O` [AHR-4, (S)-2-(6-Cyclopropyl-4-(4-fluoro-2-(4-methyl-4H-1,2,4-triazol-3-yl)phenyl)pyridin-2-yl)-6-(((1-methylpyrrolidin-2-yl)methoxy)methyl)-4-(trifluoromethyl)isoindolin-1-one], the IC50 [1] was ≤ 200 nM and the IC50 [2] was ≤ 200 nM.
With `CCOc1cc(-c2ccc(C#N)cc2-c2nncn2C)cc(N2Cc3ccc(CNCCOC)cc3C2=O)n1` [AHS-2, 4-(2-Ethoxy-6-(6-(((2-methoxyethyl)amino)methyl)-1-oxoisoindolin-2-yl)pyridin-4-yl)-3-(4-methyl-4H-1,2,4-triazol-3-yl)benzonitrile] the IC50 [1] was ≤ 200 nM and the IC50 [2] was ≤ 200 nM.
For `CCOc1cc(-c2ccc(Cl)cc2-c2nncn2C)cc(N2Cc3ccc(CNCC4(O)CCC4)cc3C2=O)n1` [AHT-2, 2-(4-(4-Chloro-2-(4-methyl-4H-1,2,4-triazol-3-yl)phenyl)-6-ethoxypyridin-2-yl)-6-((((1-hydroxycyclobutyl)methyl)amino)methyl)isoindolin-1-one], the IC50 [1] was ≤ 200 nM and the IC50 [2] was ≤ 200 nM.
With `CCOc1cc(-c2ccc(F)cc2-c2nncn2C)cc(N2Cc3ccc(CO)cc3C2=O)n1` [ANS-1] the IC50 [2] was 200 to 1000 nM.
For `C[C@@H]1CN(Cc2cc3c(c(C(F)(F)F)c2)CN(c2cccc(-c4ccccc4-c4nncn4C)c2)C3=O)CCO1` [Example X-2, (R)-2-(2′-(4-Methyl-4H-1,2,4-triazol-3-yl)-[1,1′-biphenyl]-3-yl)-6-((2-methylmorpholino)methyl)-4-(trifluoromethyl)isoindolin-1-one], the IC50 [1] was ≤ 200 nM.
Work on `Cn1cnnc1-c1ccccc1-c1cccc(N2Cc3c(cc(CN4CC[C@@H](F)C4)cc3C(F)(F)F)C2=O)c1` [Example Y-2, (R)-6-((3-Fluoropyrrolidin-1-yl)methyl)-2-(2′-(4-methyl-4H-1,2,4-triazol-3-yl)-[1,1′-biphenyl]-3-yl)-4-(trifluoromethyl)isoindolin-1-one] yielded an IC50 [1] of 200 to 1000 nM.
